Measured values from the NIST ThermoML archive (doi:10.1021/je060271a).
± gives the expanded uncertainty stated by the source.

Conditions: 303.15 K, Liquid, Vibrating tube method

`CCCCC(=O)OCC(COC(=O)CCCC)(COC(=O)CCCC)COC(=O)CCCC` [pentaerythritol tetrapentanoate] showed a mass density (981.39 kPa) of 1011.5 ± 1.2 kg/m3, a mass density (983.3 kPa) of 1011.5 ± 1.2 kg/m3 and a mass density (985.21 kPa) of 1011.5 ± 1.2 kg/m3. It also gave a mass density (987.46 kPa) of 1011.4 ± 1.2 kg/m3, a mass density (989.21 kPa) of 1011.5 ± 1.2 kg/m3 and a mass density (990.77 kPa) of 1011.5 ± 1.2 kg/m3. It also gave a mass density (992.34 kPa) of 1011.5 ± 1.2 kg/m3, a mass density (994.41 kPa) of 1011.4 ± 1.2 kg/m3 and a mass density (996.16 kPa) of 1011.4 ± 1.2 kg/m3. The mass density (998.06 kPa) was 1011.5 ± 1.2 kg/m3, the mass density (1000.1 kPa) was 1011.3 ± 1.2 kg/m3 and the mass density (1002.1 kPa) was 1011.3 ± 1.2 kg/m3. The mass density (1004.3 kPa) was 1011.4 ± 1.2 kg/m3, the mass density (1005.9 kPa) was 1011.4 ± 1.2 kg/m3 and the mass density (1007.8 kPa) was 1011.4 ± 1.2 kg/m3. It also gave a mass density (1009.4 kPa) of 1011.5 ± 1.2 kg/m3, a mass density (1011.3 kPa) of 1011.5 ± 1.2 kg/m3 and a mass density (1014 kPa) of 1011.5 ± 1.2 kg/m3. For the same compound, the mass density (1015.8 kPa) was 1011.5 ± 1.2 kg/m3, the mass density (1017.3 kPa) was 1011.5 ± 1.2 kg/m3 and the mass density (1019.2 kPa) was 1011.5 ± 1.2 kg/m3. The mass density (1021.5 kPa) was 1011.4 ± 1.2 kg/m3, the mass density (1023.4 kPa) was 1011.5 ± 1.2 kg/m3 and the mass density (1025.3 kPa) was 1011.5 ± 1.2 kg/m3. For the same compound, the mass density (1027.4 kPa) was 1011.6 ± 1.2 kg/m3, the mass density (1029.5 kPa) was 1011.5 ± 1.2 kg/m3 and the mass density (1031.2 kPa) was 1011.6 ± 1.2 kg/m3. It also gave a mass density (1033.5 kPa) of 1011.5 ± 1.2 kg/m3, a mass density (1035.6 kPa) of 1011.5 ± 1.2 kg/m3 and a mass density (1036.8 kPa) of 1011.4 ± 1.2 kg/m3. The mass density (1039.1 kPa) was 1011.5 ± 1.2 kg/m3, the mass density (1041.1 kPa) was 1011.6 ± 1.2 kg/m3 and the mass density (1042.9 kPa) was 1011.6 ± 1.2 kg/m3. It also gave a mass density (1045 kPa) of 1011.5 ± 1.2 kg/m3, a mass density (1047.6 kPa) of 1011.6 ± 1.2 kg/m3 and a mass density (1049.5 kPa) of 1011.5 ± 1.2 kg/m3. For the same compound, the mass density (1051.4 kPa) was 1011.4 ± 1.2 kg/m3, the mass density (1053.7 kPa) was 1011.5 ± 1.2 kg/m3 and the mass density (1055.7 kPa) was 1011.5 ± 1.2 kg/m3. It also gave a mass density (1058 kPa) of 1011.5 ± 1.2 kg/m3, a mass density (1059.7 kPa) of 1011.5 ± 1.2 kg/m3 and a mass density (1062.2 kPa) of 1011.5 ± 1.2 kg/m3. It also gave a mass density (1064.4 kPa) of 1011.5 ± 1.2 kg/m3, a mass density (1066.7 kPa) of 1011.6 ± 1.2 kg/m3 and a mass density (1068.7 kPa) of 1011.5 ± 1.2 kg/m3. It also gave a mass density (1071 kPa) of 1011.5 ± 1.2 kg/m3, a mass density (1072.9 kPa) of 1011.6 ± 1.2 kg/m3 and a mass density (1075.2 kPa) of 1011.5 ± 1.2 kg/m3. The mass density (1077.2 kPa) was 1011.5 ± 1.2 kg/m3, the mass density (1078.8 kPa) was 1011.5 ± 1.2 kg/m3 and the mass density (1081.6 kPa) was 1011.5 ± 1.2 kg/m3. For the same compound, the mass density (1083.8 kPa) was 1011.5 ± 1.2 kg/m3, the mass density (1085.9 kPa) was 1011.5 ± 1.2 kg/m3 and the mass density (1088 kPa) was 1011.6 ± 1.2 kg/m3. It also gave a mass density (1090.6 kPa) of 1011.6 ± 1.2 kg/m3, a mass density (1092.7 kPa) of 1011.6 ± 1.2 kg/m3 and a mass density (1095 kPa) of 1011.5 ± 1.2 kg/m3. The mass density (1097.4 kPa) was 1011.5 ± 1.2 kg/m3, the mass density (1099.5 kPa) was 1011.5 ± 1.2 kg/m3 and the mass density (1101.7 kPa) was 1011.5 ± 1.2 kg/m3. For the same compound, the mass density (1104 kPa) was 1011.6 ± 1.2 kg/m3, the mass density (1106.4 kPa) was 1011.5 ± 1.2 kg/m3 and the mass density (1108.7 kPa) was 1011.5 ± 1.2 kg/m3. For the same compound, the mass density (1111.1 kPa) was 1011.5 ± 1.2 kg/m3, the mass density (1113.4 kPa) was 1011.5 ± 1.2 kg/m3 and the mass density (1116 kPa) was 1011.5 ± 1.2 kg/m3. For the same compound, the mass density (1117.9 kPa) was 1011.5 ± 1.2 kg/m3, the mass density (1120.7 kPa) was 1011.6 ± 1.2 kg/m3 and the mass density (1122.8 kPa) was 1011.6 ± 1.2 kg/m3. The mass density (1124.8 kPa) was 1011.5 ± 1.2 kg/m3, the mass density (1127.3 kPa) was 1011.5 ± 1.2 kg/m3 and the mass density (1129.7 kPa) was 1011.5 ± 1.2 kg/m3. For the same compound, the mass density (1132.3 kPa) was 1011.6 ± 1.2 kg/m3, the mass density (1134.6 kPa) was 1011.7 ± 1.2 kg/m3 and the mass density (1137.5 kPa) was 1011.5 ± 1.2 kg/m3. For the same compound, the mass density (1139.8 kPa) was 1011.6 ± 1.2 kg/m3, the mass density (1141.8 kPa) was 1011.5 ± 1.2 kg/m3 and the mass density (1144.1 kPa) was 1011.7 ± 1.2 kg/m3. It also gave a mass density (1147.1 kPa) of 1011.4 ± 1.2 kg/m3, a mass density (1149.3 kPa) of 1011.6 ± 1.2 kg/m3 and a mass density (1151.6 kPa) of 1011.6 ± 1.2 kg/m3. It also gave a mass density (1153.8 kPa) of 1011.5 ± 1.2 kg/m3, a mass density (1156.6 kPa) of 1011.6 ± 1.2 kg/m3 and a mass density (1159 kPa) of 1011.6 ± 1.2 kg/m3. For the same compound, the mass density (1162.2 kPa) was 1011.6 ± 1.2 kg/m3, the mass density (1164.3 kPa) was 1011.8 ± 1.2 kg/m3 and the mass density (1166.9 kPa) was 1011.6 ± 1.2 kg/m3. It also gave a mass density (1169.3 kPa) of 1011.6 ± 1.2 kg/m3, a mass density (1171.7 kPa) of 1011.7 ± 1.2 kg/m3 and a mass density (1174.3 kPa) of 1011.6 ± 1.2 kg/m3. The mass density (1176.6 kPa) was 1011.5 ± 1.2 kg/m3, the mass density (1179.2 kPa) was 1011.6 ± 1.2 kg/m3 and the mass density (1182 kPa) was 1011.6 ± 1.2 kg/m3. For the same compound, the mass density (1184.7 kPa) was 1011.6 ± 1.2 kg/m3, the mass density (1187.2 kPa) was 1011.7 ± 1.2 kg/m3 and the mass density (1190.1 kPa) was 1011.7 ± 1.2 kg/m3. It also gave a mass density (1192.6 kPa) of 1011.7 ± 1.2 kg/m3, a mass density (1195.2 kPa) of 1011.6 ± 1.2 kg/m3 and a mass density (1198.1 kPa) of 1011.6 ± 1.2 kg/m3. For the same compound, the mass density (1200.7 kPa) was 1011.6 ± 1.2 kg/m3, the mass density (1203.2 kPa) was 1011.6 ± 1.2 kg/m3 and the mass density (1206.3 kPa) was 1011.6 ± 1.2 kg/m3. It also gave a mass density (1208.5 kPa) of 1011.6 ± 1.2 kg/m3, a mass density (1211.3 kPa) of 1011.6 ± 1.2 kg/m3 and a mass density (1213.9 kPa) of 1011.6 ± 1.2 kg/m3. For the same compound, the mass density (1216.9 kPa) was 1011.7 ± 1.2 kg/m3, the mass density (1219.5 kPa) was 1011.7 ± 1.2 kg/m3 and the mass density (1222.1 kPa) was 1011.6 ± 1.2 kg/m3. It also gave a mass density (1224.7 kPa) of 1011.7 ± 1.2 kg/m3, a mass density (1227.8 kPa) of 1011.7 ± 1.2 kg/m3 and a mass density (1230.6 kPa) of 1011.7 ± 1.2 kg/m3. The mass density (1233.4 kPa) was 1011.6 ± 1.2 kg/m3, the mass density (1236.1 kPa) was 1011.6 ± 1.2 kg/m3 and the mass density (1239.1 kPa) was 1011.7 ± 1.2 kg/m3. It also gave a mass density (1241.9 kPa) of 1011.6 ± 1.2 kg/m3, a mass density (1244.7 kPa) of 1011.6 ± 1.2 kg/m3 and a mass density (1248 kPa) of 1011.6 ± 1.2 kg/m3. For the same compound, the mass density (1250.6 kPa) was 1011.7 ± 1.2 kg/m3, the mass density (1253.5 kPa) was 1011.6 ± 1.2 kg/m3 and the mass density (1256.1 kPa) was 1011.6 ± 1.2 kg/m3. For the same compound, the mass density (1259.1 kPa) was 1011.6 ± 1.2 kg/m3, the mass density (1262 kPa) was 1011.6 ± 1.2 kg/m3 and the mass density (1265 kPa) was 1011.7 ± 1.2 kg/m3. The mass density (1268.1 kPa) was 1011.6 ± 1.2 kg/m3, the mass density (1271 kPa) was 1011.6 ± 1.2 kg/m3 and the mass density (1274 kPa) was 1011.7 ± 1.2 kg/m3. The mass density (1277 kPa) was 1011.6 ± 1.2 kg/m3, the mass density (1279.4 kPa) was 1011.6 ± 1.2 kg/m3 and the mass density (1283 kPa) was 1011.7 ± 1.2 kg/m3. The mass density (1286 kPa) was 1011.7 ± 1.2 kg/m3, the mass density (1289.1 kPa) was 1011.6 ± 1.2 kg/m3 and the mass density (1292.6 kPa) was 1011.7 ± 1.2 kg/m3. It also gave a mass density (1296 kPa) of 1011.7 ± 1.2 kg/m3, a mass density (1299.7 kPa) of 1011.6 ± 1.2 kg/m3 and a mass density (1302.8 kPa) of 1011.7 ± 1.2 kg/m3. The mass density (1305.6 kPa) was 1011.7 ± 1.2 kg/m3, the mass density (1308.5 kPa) was 1011.6 ± 1.2 kg/m3 and the mass density (1312.2 kPa) was 1011.7 ± 1.2 kg/m3. The mass density (1315 kPa) was 1011.8 ± 1.2 kg/m3, the mass density (1318.1 kPa) was 1011.7 ± 1.2 kg/m3 and the mass density (1321.4 kPa) was 1011.7 ± 1.2 kg/m3. It also gave a mass density (1324.3 kPa) of 1011.7 ± 1.2 kg/m3, a mass density (1327.8 kPa) of 1011.6 ± 1.2 kg/m3 and a mass density (1331.1 kPa) of 1011.7 ± 1.2 kg/m3. For the same compound, the mass density (1334.2 kPa) was 1011.8 ± 1.2 kg/m3, the mass density (1337.4 kPa) was 1011.6 ± 1.2 kg/m3 and the mass density (1340.5 kPa) was 1011.6 ± 1.2 kg/m3. For the same compound, the mass density (1343.8 kPa) was 1011.7 ± 1.2 kg/m3, the mass density (1347.3 kPa) was 1011.8 ± 1.2 kg/m3 and the mass density (1350.2 kPa) was 1011.7 ± 1.2 kg/m3. It also gave a mass density (1354.2 kPa) of 1011.7 ± 1.2 kg/m3, a mass density (1357.2 kPa) of 1011.6 ± 1.2 kg/m3 and a mass density (1360.5 kPa) of 1011.7 ± 1.2 kg/m3. It also gave a mass density (1363.6 kPa) of 1011.7 ± 1.2 kg/m3, a mass density (1367.4 kPa) of 1011.7 ± 1.2 kg/m3 and a mass density (1371.1 kPa) of 1011.7 ± 1.2 kg/m3. It also gave a mass density (1373.8 kPa) of 1011.7 ± 1.2 kg/m3, a mass density (1377.5 kPa) of 1011.7 ± 1.2 kg/m3 and a mass density (1381.3 kPa) of 1011.8 ± 1.2 kg/m3. For the same compound, the mass density (1384.2 kPa) was 1011.7 ± 1.2 kg/m3.
